Reference: the SangsterLogP compilation

Columns and labels:
[1] = method code SF-AS, from DOI: 10.3390/molecules16097565, PMID: 21894089
[2] = method code SF-AS, from DOI: 10.1016/s0026-895x(25)13808-x, PMID: 93689
[3] = method code SF-HPLC, from DOI: 10.1023/a:1015828802490, PMID: 2308896
[4] = method code SF, from DOI: 10.1016/s0960-894x(04)00268-9, PMID: 15109667; details: pH 7.4
[5] = method code SF-AS, from DOI: 10.1002/jps.2600790421, PMID: 2352153
[6] = method code SF-HPLC, from DOI: 10.1584/jpestics.11.469
[7] = method code RP-HPLC, from DOI: 10.1021/jm970292n, PMID: 9371243
[8] = method code SF-HPLC, from Thijssen, W. (1981). The relationship between Log P, Rm, log k' and the constants pi and f: a study on penicillins. Eur J Med Chem, 16(5)449-452.
[9] = method code SF-AS, from DOI: 10.1016/0223-5234(94)90120-1; details: pH 7.4
[10] = method code SF-HPLC, from DOI: 10.1039/p29890001935
[11] = method code SF-HPLC, from DOI: 10.1016/j.jpba.2011.06.023, PMID: 21782368; details: pH 7.4
[12] = not given; remark: listed apart in the source
[13] = method code SF-HPLC, from DOI: 10.1016/0378-5173(94)90060-4; details: pH 5.0
[14] = method code SF-HPLC, from PMID: 2780588
[15] = method code SF-AS, from DOI: 10.1002/chin.199708138, PMID: 8917646; details: pH 7.4
[16] = not given; remark: listed apart in the source
[17] = not given; remark: listed apart in the source
[18] = method code SF-RC, from DOI: 10.1021/jm701375u, PMID: 18307287; details: pH 7.4
[19] = not given; remark: listed apart in the source
[20] = method code SF-AS, from DOI: 10.1021/jm9800301, PMID: 9748357; details: pH 7.4
[21] = method code SF-RC, from DOI: 10.1016/j.bmc.2013.10.046, PMID: 24262882; details: pH 7.4
[22] = method code SF, from DOI: 10.1002/jps.2600830715, PMID: 7965680
[23] = method code …, from Wiggins, H.; Karcher, A.; Michael Wilson, J.; Robb, I. (2008). Determining Octanol/Water Partitioning Coefficients for Industrial Surfactants. Proc. 15th Annual International Petroleum & Biofuels …
[24] = not given; remark: listed apart in the source
[25] = method code SF, from PMID: 8999431; details: pH 7.4
[26] = method code SF-AS, from Kourounakis, P.; Chilliard, N. (1983). Ionization constants and partition coefficients of some 1,1-diphenyl-1-alkoxy-3-dialkylamino-2-propanones with analgesic activity. Pharmazie, 38(6)388-389.; details: pH 7.4
[27] = method code SF-AS, from DOI: 10.1006/pest.1994.1014
[28] = method code SF-GLC, from DOI: 10.1023/a:1015803202857, PMID: 2395795
[29] = method code SF-AS, from DOI: 10.1007/bf02857814, PMID: 1608986
[30] = not given; remark: listed apart in the source

C[C@H](c1nc2ccc(F)cc2s1)N1C(=O)C(=O)N(c2ccc(Cl)cc2)C1=O
logP [1]: 0.41

CC(C)(C)[C@]1(O)CCN2CC3c4ccccc4CCc4cccc(c43)C2C1 (some centres not stated)
logP [2]: 4.35

COc1c(C)c2c(c(O)c1C/C=C(\C)CCC(=O)O)C(=O)OC2
logD ([3]; pH 2.0): 2.76

CC(=O)OC(CC#CCS(=O)(=O)c1ccc([N+](=O)[O-])cc1)Cn1ccnc1[N+](=O)[O-] (configuration not stated)
logD [4]: 1.18

CC(C)[C@H](NC(=O)[C@H](Cc1ccccc1)N(CCCl)N=O)C(=O)NC(=O)NCCCl
logP [5]: 3.46

CCOC(=O)C(C)Oc1ccc(Oc2cnc3cc(C(F)(F)F)ccc3n2)cc1 (configuration not stated)
logP [6]: 4.37

O=C1c2c(O)cccc2Cc2cccc(-c3ccccc3)c21
logP [7]: 3.99

CN1CCN(C2=Nc3cc(Cl)ccc3Nc3ccccc32)CC1
logP [2]: 3.32

C=CCOc1ccccc1OCC(CNC(C)C)OC(=O)/C=C/C (configuration not stated)
logP: 3.65

Cc1onc(-c2ccccc2)c1C(=O)NC1C(=O)N2C1S(=O)C(C)(C)C2C(=O)O (configuration not stated)
logP [8]: 1.8

S=C1SCN(Cc2ccccc2)CN1Cc1ccccc1
logD [9]: 4.9

COc1c(C)c2c(c(OC(C)=O)c1C/C=C(\C)CCC(=O)OCC1COC(C)(C)O1)C(=O)OC2 (configuration not stated)
logD ([3]; pH 7.4): 2.87

Clc1ccccc1C1OCC2ON=C(c3ccccc3)C2CO1 (configuration not stated)
logP [10]: 2.92

CC(C)c1ccc(N2C(=O)C(=O)N([C@H](C)c3nc4ccc(F)cc4s3)C2=O)cc1
logP [1]: 1.64

CCCOC(=O)CC(CNC(=O)OC(C)(C)C)c1ccc(Cl)cc1 (configuration not stated)
logD [11]: 3

CC(=O)[C@H]1CC[C@H]2[C@@H]3CC=C4C[C@@H](O)CC[C@]4(C)[C@H]3CC[C@]12C
logP [12]: 4.22

CCCOC(=O)n1c(NC(=O)OC)nc2cc(C(=O)c3ccccc3)ccc21
logD [13]: 3.43

CCCCCCCCNC(=O)Cc1ccc(O)c(OC)c1
logP [14]: 2.94

COC(=O)C1=C(C)NC(C)=C(C(=O)OCCO)C1c1cccc(Cl)c1Cl (configuration not stated)
logD [15]: 2.37

Fc1ccccc1C1=NCC(=S)N(CC(F)(F)F)c2ccc(Cl)cc21
logP [16]: 4.03

NS(=O)(=O)c1cc(Cl)c(Nc2nc3ccncc3c3c(=O)[nH]ccc23)c(Cl)c1
logP [17]: 1.17

CC(C)OC(=O)CC(CNC(=O)OC(C)(C)C)c1ccc(Cl)cc1 (configuration not stated)
logD [11]: 3.4

CCOC(=O)n1c(NC(=O)OC)nc2cc(C(=O)c3ccccc3)ccc21
logD [13]: 2.93

Brc1cccc(N2CCN(Cc3cc4ccccn4n3)CC2)n1
logD [18]: 1.78

O=C1CC[C@@](c2ccccc2)(C2CCN(Cc3ccccc3)CC2)C(=O)N1
logP [19]: 3.55

O=C(NCc1ccc(F)cc1)C(=O)c1c[nH]c2ccccc12
logD [20]: 2.88

O=C(OCCF)C1C(c2ccc(I)cc2)C2CCC1N2CC=CI (configuration not stated)
logD [21]: 5.39

Fc1ccccc1C1OCC2ON=C(c3ccccc3)C2CO1 (configuration not stated)
logP [10]: 2.35

CC(C)C(NC(=O)N(CCCl)N=O)C(=O)NC1CC(C)(C)N(O)C(C)(C)C1 (configuration not stated)
logP [22]: 2.09

CCCCCCCCCCCCOCCOCCOCCOCCOCCOCCO
logP [23]: 4.81

O=C1CN=C(c2ccccc2F)c2cc(Cl)ccc2N1CC(F)(F)F
logP [16]: 3.36

CN(C)CCC=C1c2ccccc2CCc2ccccc21
logP [24]: 5.04

CC(C)[C@H](NC(=O)[C@H](c1ccccc1)N(CCCl)N=O)C(=O)NC(=O)NCCCl
logP [5]: 3.32

CCC(C)C(NC(=O)c1cn(CC)c2nc(C)ccc2c1=O)C(=O)OC (configuration not stated)
logD [25]: 2.64

COC(C(=O)N(C)C)(c1ccccc1)c1ccccc1
logD [26]: 0.78

CCOC(=O)C(C)Oc1ccc(Oc2cnc3ccccc3n2)cc1 (configuration not stated)
logP [6]: 3.48

CC(C)(C)N(NC(=O)c1ccccc1Cl)C(=O)c1ccccc1Cl
logP [27]: 2.75

CCCCCCCCOCCOCCOCCOCCO
logP [23]: 2.68

CN(C)CCC=C1c2ccccc2CCc2c(Cl)cccc21
logP [19]: 5.55

CC(=O)OC(CC#CCS(=O)(=O)c1ccccc1)Cn1ccnc1[N+](=O)[O-] (configuration not stated)
logD [4]: 1.35

C[C@]12CC[C@@H]3c4ccc(O)cc4CC[C@H]3[C@@H]1C[C@@H](O)[C@@H]2O
logP [12]: 2.45

COc1ccc(CNC(=O)C(=O)c2c[nH]c3ccc([N+](=O)[O-])cc23)cc1
logD [20]: 2.17

CN(C)CC(=O)C(Oc1ccccc1)(c1ccccc1)c1ccccc1
logD [26]: 1.57

Cc1ccccc1C(=O)NN(C(=O)c1ccccc1Cl)C(C)(C)C
logP [27]: 2.91

OC(CCN1CCCCC1)(c1ccccc1)C1CCCCC1 (configuration not stated)
logP [28]: 4.49

S=C1SCN(Cc2ccccc2)CN1CCc1ccccc1
logD [9]: 5

CC(=O)Oc1cccc2cc3cccc(OC(C)=O)c3c(OC(C)=O)c12
logP [7]: 2.02

Cc1onc(-c2c(Cl)cccc2Cl)c1C(=O)NC1C(=O)N2C1SC(C)(C)C2C(=O)O (configuration not stated)
logP [8]: 2.89

CCn1cc(C(=O)NC(C(=O)OC)C(C)C)c(=O)c2ccc(C)nc21 (configuration not stated)
logD [25]: 3.61

COC(=O)C1C(c2ccc(I)cc2)C2CCC1N2CC=CI (configuration not stated)
logD [21]: 5.29

CC(C)(O)c1cc(Cl)c(Nc2nc3ccncc3c3c(=O)[nH]ccc23)c(Cl)c1
logP [17]: 1.34

Oc1ccccc1N1CCN(Cc2cnn3ccccc23)CC1
logD [18]: 2.15

CC1(C)CC(NC(=O)C(Cc2ccccc2)NC(=O)N(CCCl)N=O)CC(C)(C)N1O (configuration not stated)
logP [22]: 2.3

CCn1cc(C(=O)NC(Cc2c[nH]cn2)C(=O)OC)c(=O)c2ccc(C)nc21 (configuration not stated)
logP [29]: 0.31

COC(=O)C1=C(C)NC(C)=C(C(=O)OCCOC(=O)C2=CN(C)C=CC2)C1c1cccc(Cl)c1Cl (configuration not stated)
logD [15]: 2.56

CN(C)CCC=C1c2ccccc2CSc2ccccc21
logP [24]: 4.49

CCn1cc(C(=O)NC(CSSCC(N)C(=O)OC)C(=O)OC)c(=O)c2ccc(C)nc21 (configuration not stated)
logP [29]: 0.91

C=CCOc1ccccc1OCC(CNC(C)C)OC(=O)CCCC (configuration not stated)
logP: 4

CCO[C@@H](Cc1ccc(OC/C=C/C#Cc2ccccc2)cc1)C(=O)O
logP [30]: 3.87

CC(C)=CCN1CC[C@@]2(C)c3cc(O)ccc3C[C@@H]1[C@@H]2C
logP [28]: 3.31

CCCCCCCCOC(=O)Cc1ccc(O)c(OC)c1
logP [14]: 4.04

COC(=O)C(C)(C)Oc1ccc(C(=O)c2ccc(Cl)cc2)cc1
logP [30]: 4.27
